Source: patent US5714494A, “Xanthines in the 7th position with a benzyl acetic acid moiety” (Bayer Aktiengesellschaft, priority 1995, dated 1998)

The molecules below were run on ApoB-100-associated lipoproteins (assay: Inhibition of the release of ApoB-100-associated lipoproteins from HepG2 cells (immunoassay for human LDL)). Details: HepG2 cells; light absorption 450 nm vs solvent control.
Assay type: cell-based
Protocol: The test for detecting inhibition of the release of ApoB-100-associated lipoproteins from liver cells was carried out in vitro using cultured liver cells, preferably using cells of the human line HepG2. These cells are grown under standard conditions in medium for the culture of eucaryotic cells, preferably in RPMI 1640 using 10% foetal calf serum. HepG2 cells synthesize and secrete into the culture supernatant ApoB-100-associated lipoprotein particles which in principle are synthesized in a similar manner to the VLDL and LDL particles which are to be found in the plasma.
These particles can be detected using an immunoassay for human LDL. This immunoassay is carried out using antibodies which have been induced in the rabbit against human LDL under standard conditions. The anti-LDL antibodies (rabbit anti-LDL-Ab) were purified by affinity chromatography on an immunosorbent using human LDL. These purified rabbit anti-LDL Ab are adsorbed on the surface of plastic. Expediently, this adsorption is carried out on the plastic surface of microtitre plates having 96 wells, preferably on MaxiSorp plates. If ApoB-100-associated particles are present in the supernatant of Hep-G2 cells, these can bind to the insolubilized rabbit anti-LDL Ab, and an immune complex is formed which is bound to the plastic surface. Unbound proteins are removed by washing. The immune complex located on the plastic surface is detected using monoclonal antibodies which have been induced against human LDL according to standard conditions and purified. These antibodies were conjugated with the enzyme peroxidase. Peroxidase converts the colourless substrate TMB into a coloured product in the presence of H2 O2. After acidification of the reaction mixture using H2 SO4, the specific light absorption at 450 mn is determined, which is a measure of the amount of ApoB-100-associated particles which have been secreted into the culture supernatant by the HepG2 cells.
The IC50 value indicates at which substance concentration the light absorption is inhibited by 50% in comparison with the control (solvent control without substance).
In the case of `Cn1c(=O)c2c(ncn2Cc2ccc(C(C(=O)N[C@@H](CO)c3ccccc3)C3CCCC3)cc2)n(C)c1=O` (single isomer, unassigned) [Example 115], the IC50 is reported as 240 nM.
In the case of `Cn1c(=O)c2c(nc(Br)n2Cc2ccc(C(C(=O)N[C@@H](CO)c3ccccc3)C3CCCC3)cc2)n(C)c1=O` (single isomer, unassigned) [Example 118], the IC50 is reported as 7 nM.
In the case of `Cn1c(=O)c2c(nc(-c3ccccc3)n2Cc2ccc(C(C(=O)N[C@@H](CO)c3ccccc3)C3CCCC3)cc2)n(C)c1=O` (single isomer, unassigned) [Example 131], the IC50 is reported as 135 nM.
Molecule `Cc1ccc(-c2nc3c(c(=O)n(C)c(=O)n3C)n2Cc2ccc(C(C(=O)N[C@@H](CO)c3ccccc3)C3CCCC3)cc2)cc1` (single isomer, unassigned) [Example 137] has an IC50 of 124 nM.
`Cn1c(=O)c2c(nc(-c3ccsc3)n2Cc2ccc(C(C(=O)N[C@@H](CO)c3ccccc3)C3CCCC3)cc2)n(C)c1=O` (single isomer, unassigned) [Example 155] showed an IC50 of 2 nM.
With `Cn1c(=O)c2c(nc(-c3ccsc3)n2Cc2ccc(C(C(=O)N[C@@H](CO)c3ccccc3)C3CCCC3)cc2)n(C)c1=O` (single isomer, unassigned) [Example 156] the IC50 was 25 nM.
Molecule `Cn1c(=O)c2c(nc(-c3cccs3)n2Cc2ccc(C(C(=O)N[C@@H](CO)c3ccccc3)C3CCCC3)cc2)n(C)c1=O` (single isomer, unassigned) [Example 158] has an IC50 of 2 nM.
In the case of `Cn1c(=O)c2c(nc(-c3cccs3)n2Cc2ccc(C(C(=O)N[C@@H](CO)c3ccccc3)C3CCCC3)cc2)n(C)c1=O` (single isomer, unassigned) [Example 159], the IC50 is reported as 25 nM.
For `Cn1c(=O)c2c(nc(Cc3ccccc3)n2Cc2ccc(C(C(=O)N[C@@H](CO)c3ccccc3)C3CCCC3)cc2)n(C)c1=O` (single isomer, unassigned) [Example 170], the IC50 was 16 nM.
`Cc1cccc(Cc2nc3c(c(=O)n(C)c(=O)n3C)n2Cc2ccc(C(C(=O)N[C@@H](CO)c3ccccc3)C3CCCC3)cc2)c1` (single isomer, unassigned) [Example 181] was tested, and the IC50 was 10 nM.
In the case of `Cc1ccc(Cc2nc3c(c(=O)n(C)c(=O)n3C)n2Cc2ccc(C(C(=O)N[C@@H](CO)c3ccccc3)C3CCCC3)cc2)cc1` (single isomer, unassigned) [Example 183], the IC50 is reported as 10 nM.
`Cc1ccc(Cc2nc3c(c(=O)n(C)c(=O)n3C)n2Cc2ccc(C(C(=O)N[C@@H](CO)c3ccccc3)C3CCCC3)cc2)cc1` (single isomer, unassigned) [Example 184] gave an IC50 of 24 nM.
`Cn1c(=O)c2c(nc(Cc3ccccc3Cl)n2Cc2ccc(C(C(=O)N[C@@H](CO)c3ccccc3)C3CCCC3)cc2)n(C)c1=O` (single isomer, unassigned) [Example 189] was tested, and the IC50 was 31 nM.
`Cn1c(=O)c2c(nc(Cc3ccccc3Cl)n2Cc2ccc(C(C(=O)N[C@@H](CO)c3ccccc3)C3CCCC3)cc2)n(C)c1=O` (single isomer, unassigned) [Example 190] was tested, and the IC50 was 86 nM.
With `Cn1c(=O)c2c(nc(Cc3cccc(Cl)c3)n2Cc2ccc(C(C(=O)N[C@@H](CO)c3ccccc3)C3CCCC3)cc2)n(C)c1=O` (single isomer, unassigned) [Example 192] the IC50 was 8 nM.
With `Cn1c(=O)c2c(nc(Cc3cccc(Cl)c3)n2Cc2ccc(C(C(=O)N[C@@H](CO)c3ccccc3)C3CCCC3)cc2)n(C)c1=O` (single isomer, unassigned) [Example 193] the IC50 was 62 nM.
Work on `Cn1c(=O)c2c(nc(Cc3ccc(F)cc3)n2Cc2ccc(C(C(=O)N[C@@H](CO)c3ccccc3)C3CCCC3)cc2)n(C)c1=O` (single isomer, unassigned) [Example 195] yielded an IC50 of 5 nM.

Same assay, conditions: Homo sapiens, HepG2, HepG2 cells; light absorption 450 nm vs solvent control
Molecule `Cn1c(=O)c2c(nc(Cc3ccccc3)n2Cc2ccc(C(C(=O)N[C@@H](CO)c3ccccc3)C3CCCCC3)cc2)n(C)c1=O` (single isomer, unassigned) [Example 172] has an IC50 of 1 nM.
With `Cc1cccc(Cc2nc3c(c(=O)n(C)c(=O)n3C)n2Cc2ccc(C(C(=O)N[C@@H](CO)c3ccccc3)C3CCCC3)cc2)c1` (single isomer, unassigned) [Example 180] the IC50 was 5 nM.
